Test results as given in patent publication US20120225062A1 (priority 2011, published 2012).

Legend:
[1] = system: KMS11 (human myeloma cell line); assay: Cell Proliferation Assay (CellTiter-Glo, 3 days); type: cell-based; settings: KMS-11, 72 h, KMS11-luc cells
Summary of the method: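 KMS11 myeloma cells, 2000 per well in IMDM with 10% FBS, exposed to compound for 3 days at 37° C. Viability read by CellTiter-Glo luminescence; EC50 derived.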

Pim 1 = Pim 1 (Homo sapiens, UniProt P11309); assay: Pim 1 AlphaScreen assay (high ATP)
Chain of Pim 1 (P11309 whole entry): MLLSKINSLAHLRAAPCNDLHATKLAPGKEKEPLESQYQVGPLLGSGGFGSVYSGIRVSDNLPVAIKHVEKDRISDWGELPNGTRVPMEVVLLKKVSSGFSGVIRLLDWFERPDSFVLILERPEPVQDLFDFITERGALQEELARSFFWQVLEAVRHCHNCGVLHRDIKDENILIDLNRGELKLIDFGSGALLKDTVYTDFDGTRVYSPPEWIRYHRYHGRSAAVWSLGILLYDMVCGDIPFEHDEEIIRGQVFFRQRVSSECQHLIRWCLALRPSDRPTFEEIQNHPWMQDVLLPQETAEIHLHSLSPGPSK

Pim 2 = Pim 2 (Homo sapiens, UniProt Q9P1W9); assay: Pim 2 AlphaScreen assay (high ATP)
Chain of Pim 2 (Q9P1W9 whole entry): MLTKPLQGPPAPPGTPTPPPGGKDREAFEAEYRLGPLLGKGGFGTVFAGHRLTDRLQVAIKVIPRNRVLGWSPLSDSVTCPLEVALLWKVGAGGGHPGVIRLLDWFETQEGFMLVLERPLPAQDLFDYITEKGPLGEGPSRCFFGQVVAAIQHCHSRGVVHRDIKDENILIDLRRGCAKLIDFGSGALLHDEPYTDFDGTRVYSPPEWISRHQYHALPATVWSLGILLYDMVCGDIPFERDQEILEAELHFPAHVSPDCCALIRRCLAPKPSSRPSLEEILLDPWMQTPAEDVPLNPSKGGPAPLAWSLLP
Method: (§1) The activity of Pim 1, Pim 2, & Pim 3 is measured using a homogeneous bead based system quantifying the amount of phosphorylated peptide substrate resulting from kinase-catalyzed phosphoryl transfer to a peptide substrate. Compounds to be tested are dissolved in 100% DMSO and directly distributed to a white 384-well plate at 0.25 μl per well. […] This is followed by the addition of 5 μl/well of Pim 1, Pim 2 or Pim 3 kinase in assay buffer (concentrations described below). Final assay concentrations (described below) are in 2.5% DMSO. The reactions are performed for ˜2 hours, then stopped by the addition of 10 μl of 0.75 μg/ml anti-phospho Ser/Thr antibody (Cell Signaling), 10 μg/ml Protein A AlphaScreen beads (Perkin Elmer), and 10 μg/ml streptavidin coated AlphaScreen beads in stop/detection buffer (50 mM EDTA, 95 mM Tris, pH=7.5, 0.01% Tween-20). The stopped reactions are incubated overnight in the dark. The phosphorylated peptide is detected via an oxygen anion initiated chemiluminescence/fluorescence cascade using the Envision plate reader (Perkin Elmer).

Pim 3 = Pim 3 (Homo sapiens, UniProt Q86V86); assay: Pim 3 AlphaScreen assay (high ATP)
Method: as §1

SMILES | EC50 [1] | IC50 (Pim 1) | IC50 (Pim 2) | IC50 (Pim 3)
C[C@H]1C[C@@H](c2ccncc2NC(=O)c2ccc(F)c(-c3c(F)cc(C4CCS(=O)(=O)CC4)cc3F)n2)C[C@@H](N)[C@H]1O [Example 205, N-(4-((1R,3R,4S,5S)-3-amino-4-hydroxy-5-methylcyclohexyl)pyridin-3-yl)-6-(4-(1,1-dioxidotetrahydro-2H-thiopyran-4-yl)-2,6-difluorophenyl)-5-fluoropicolinamide] | 1380 nM | 0.02 nM | 1.52 nM | 1.07 nM
C[C@@H]1C[C@H](N)C[C@H](c2ccncc2NC(=O)c2ccc(F)c(-c3c(F)cc([C@@H]4CCOC4)cc3F)n2)C1 [Example 206, N-(4-((1R,3S,5S)-3-amino-5-methylcyclohexyl)pyridin-3-yl)-6-(2,6-difluoro-4-((S)-tetrahydrofuran-3-yl)phenyl)-5-fluoropicolinamide] | 59 nM | 0.01 nM | 1.66 nM | 0.8 nM
C[C@@H]1C[C@H](N)C[C@H](c2ccncc2NC(=O)c2ccc(F)c(-c3c(F)cc([C@H]4CCOC4)cc3F)n2)C1 [Example 207, N-(4-((1R,3S,5S)-3-amino-5-methylcyclohexyl)pyridin-3-yl)-6-(2,6-difluoro-4-((R)-tetrahydrofuran-3-yl)phenyl)-5-fluoropicolinamide] | 96 nM | 0.01 nM | 1.23 nM | 0.13 nM
COc1ccc(F)c(-c2nc(C(=O)Nc3cnccc3[C@@H]3C[C@H](C)C[C@H](N)C3)ccc2F)c1F [Example 212, N-(4-((1R,3S,5S)-3-amino-5-methylcyclohexyl)pyridin-3-yl)-6-(2,6-difluoro-3-methoxyphenyl)-5-fluoropicolinamide] | 50 nM | 0.03 nM | 3.77 nM | 1.03 nM
COc1ccc(F)c(-c2nc(C(=O)Nc3cnccc3N3C[C@@H](N)[C@H](O)[C@@H](C)C3)ccc2F)c1F [Example 214, N-(4-((3R,4R,5S)-3-amino-4-hydroxy-5-methylpiperidin-1-yl)pyridin-3-yl)-6-(2,6-difluoro-3-methoxyphenyl)-5-fluoropicolinamide] | 32 nM | 0.03 nM | 1.07 nM | 0.37 nM
COC(=O)c1cc(F)c(-c2nc(C(=O)Nc3cnccc3N3C[C@@H](N)[C@H](O)[C@@H](C)C3)ccc2F)c(F)c1 [Example 215, methyl 4-(6-((4-((3R,4R,5S)-3-amino-4-hydroxy-5-methylpiperidin-1-yl)pyridin-3-yl)carbamoyl)-3-fluoropyridin-2-yl)-3,5-difluorobenzoate] | 36 nM | 0.06 nM | 2.54 nM | 0.88 nM
CCOc1ccc(F)c(-c2nc(C(=O)Nc3cnccc3N3C[C@@H](N)[C@H](O)[C@@H](C)C3)ccc2F)c1F [Example 216, N-(4-((3R,4R,5S)-3-amino-4-hydroxy-5-methylpiperidin-1-yl)pyridin-3-yl)-6-(3-ethoxy-2,6-difluorophenyl)-5-fluoropicolinamide] | 28 nM | 0.02 nM | 2.02 nM | 0.39 nM
Cc1cc(F)c(-c2nc(C(=O)Nc3cnccc3[C@H]3C[C@@H](N)[C@H](O)[C@@H](C)C3)c(N)cc2F)c(F)c1 [Example 219, 3-amino-N-(4-((1R,3R,4R,5S)-3-amino-4-hydroxy-5-methylcyclohexyl)pyridin-3-yl)-6-(2,6-difluoro-4-methylphenyl)-5-fluoropicolinamide] | 23 nM | 0.03 nM | 2.01 nM | 0.65 nM
C[C@@H]1C[C@H](N)C[C@H](c2ccncc2NC(=O)c2nc(-c3c(F)cc(C4(O)CCC4)cc3F)c(F)cc2N)C1 [Example 220, 3-amino-N-(4-((1R,3S,5S)-3-amino-5-methylcyclohexyl)pyridin-3-yl)-6-(2,6-difluoro-4-(1-hydroxycyclobutyl)phenyl)-5-fluoropicolinamide] | 8 nM | 0.01 nM | 0.64 nM | 0.14 nM
C[C@@H]1C[C@H](N)C[C@H](c2ccncc2NC(=O)c2nc(-c3c(F)cc(C4(O)COC4)cc3F)c(F)cc2N)C1 [Example 221, 3-amino-N-(4-((1R,3S,5S)-3-amino-5-methylcyclohexyl)pyridin-3-yl)-6-(2,6-difluoro-4-(3-hydroxyoxetan-3-yl)phenyl)-5-fluoropicolinamide] | 4 nM | 0.01 nM | 0.73 nM | 0.13 nM
Cc1cc(F)c(-c2nc(C(=O)Nc3cnccc3[C@@H]3C[C@H](C)C[C@H](N)C3)c(N)cc2F)c(F)c1 [Example 222, 3-amino-N-(4-((1R,3S,5S)-3-amino-5-methylcyclohexyl)pyridin-3-yl)-6-(2,6-difluoro-4-methylphenyl)-5-fluoropicolinamide] | 23 nM | 0.01 nM | 0.81 nM | 0.35 nM
C[C@@H]1C[C@H](N)C[C@H](c2ccncc2NC(=O)c2ccc(F)c(-c3c(F)cc([S@+](C)[O-])cc3F)n2)C1 [Example 227, N-(4-((1R,3S,5S)-3-amino-5-methylcyclohexyl)pyridin-3-yl)-6-(2,6-difluoro-4-((S)-methylsulfinyl)phenyl)-5-fluoropicolinamide] | 221 nM | 0.16 nM | 17.3 nM | 23.9 nM
C[C@@H]1C[C@H](N)C[C@H](c2ccncc2NC(=O)c2ccc(F)c(-c3c(F)cc([S@@+](C)[O-])cc3F)n2)C1 [Example 228, N-(4-((1R,3S,5S)-3-amino-5-methylcyclohexyl)pyridin-3-yl)-6-(2,6-difluoro-4-((R)-methylsulfinyl)phenyl)-5-fluoropicolinamide] | 94 nM | 0.14 nM | 6.26 nM | 7.85 nM
C[C@@H]1C[C@H](N)C[C@H](c2ccncc2NC(=O)c2ccc(F)c(-c3c(F)cc(OCCO)cc3F)n2)C1 [Example 229, N-(4-((1R,3S,5S)-3-amino-5-methylcyclohexyl)pyridin-3-yl)-6-(2,6-difluoro-4-(2-hydroxyethoxy)phenyl)-5-fluoropicolinamide] | 26 nM | 0.03 nM | 2.58 nM | 0.82 nM
C[C@@H]1C[C@H](N)C[C@H](c2ccncc2NC(=O)c2ccc(F)c(-c3c(F)cc([C@H](O)CO)cc3F)n2)C1 [Example 231, N-(4-((1R,3S,5S)-3-amino-5-methylcyclohexyl)pyridin-3-yl)-6-(4-((S)-1,2-dihydroxyethyl)-2,6-difluorophenyl)-5-fluoropicolinamide] | 46 nM | 0.04 nM | 2.6 nM | 1.53 nM
C[C@@H]1C[C@H](N)C[C@H](c2ccncc2NC(=O)c2ccc(F)c(-c3c(F)cc([C@@H](O)CO)cc3F)n2)C1 [Example 232, N-(4-((1R,3S,5S)-3-amino-5-methylcyclohexyl)pyridin-3-yl)-6-(4-((R)-1,2-dihydroxyethyl)-2,6-difluorophenyl)-5-fluoropicolinamide] | 47 nM | 0.05 nM | 3.01 nM | 2.07 nM
C[C@H]1CN(c2ccncc2NC(=O)c2ccc(F)c(-c3c(F)cc([C@H](O)CO)cc3F)n2)C[C@@H](N)[C@@H]1O [Example 233, N-(4-((3R,4R,5S)-3-amino-4-hydroxy-5-methylpiperidin-1-yl)pyridin-3-yl)-6-(4-((S)-1,2-dihydroxyethyl)-2,6-difluorophenyl)-5-fluoropicolinamide] | 20 nM | 0.04 nM | 2.2 nM | 1.03 nM
C[C@H]1CN(c2ccncc2NC(=O)c2ccc(F)c(-c3c(F)cc([C@@H](O)CO)cc3F)n2)C[C@@H](N)[C@@H]1O [Example 234, N-(4-((3R,4R,5S)-3-amino-4-hydroxy-5-methylpiperidin-1-yl)pyridin-3-yl)-6-(4-((R)-1,2-dihydroxyethyl)-2,6-difluorophenyl)-5-fluoropicolinamide] | 9 nM | 0.04 nM | 1.77 nM | 0.65 nM
CCc1cc(F)c(-c2nc(C(=O)Nc3cnccc3N3C[C@@H](N)[C@H](O)[C@@H](C)C3)ccc2F)c(F)c1 [Example 235, N-(4-((3R,4R,5S)-3-amino-4-hydroxy-5-methylpiperidin-1-yl)pyridin-3-yl)-6-(4-ethyl-2,6-difluorophenyl)-5-fluoropicolinamide] | 20 nM | 0.02 nM | 0.87 nM | 0.25 nM
C[C@H]1C[C@@H](c2ccncc2NC(=O)c2ccc(F)c(-c3c(F)cc4c(c3F)OCC[C@]4(C)O)n2)C[C@@H](N)[C@@H]1O [Example 237, N-(4-((1R,3R,4R,5S)-3-amino-4-hydroxy-5-methylcyclohexyl)pyridin-3-yl)-6-((S)-6,8-difluoro-4-hydroxy-4-methylchroman-7-yl)-5-fluoropicolinamide] | 181 nM | 0.25 nM | 14.2 nM | 16 nM
C[C@H]1C[C@@H](c2ccncc2NC(=O)c2ccc(F)c(-c3c(F)cc4c(c3F)OCC[C@@]4(C)O)n2)C[C@@H](N)[C@@H]1O [Example 238, N-(4-((1R,3R,4R,5S)-3-amino-4-hydroxy-5-methylcyclohexyl)pyridin-3-yl)-6-((R)-6,8-difluoro-4-hydroxy-4-methylchroman-7-yl)-5-fluoropicolinamide] | 55 nM | 0.04 nM | 3.15 nM | 1.36 nM
C[C@@H]1C[C@H](N)C[C@H](c2ccncc2NC(=O)c2ccc(F)c(-c3c(F)cc4c(c3F)OCC[C@]4(C)O)n2)C1 [Example 239, N-(4-((1R,3S,5S)-3-amino-5-methylcyclohexyl)pyridin-3-yl)-6-((S)-6,8-difluoro-4-hydroxy-4-methylchroman-7-yl)-5-fluoropicolinamide] | 31 nM | 0.01 nM | 1.72 nM | 1.1 nM
